Source: patent publication US20090304625A1, “MODULATORS OF CARDIAC CELL HYPERTROPHY AND HYPERPLASIA” (priority 2006, published 2009)

How the values were obtained:
[1] = system: subcutaneous xenograft tumors; settings: cited from earlier work; for growth of tumor cells grown as subcutaneous xenografts: athymic mice
[2] = system: human umbilical vein endothelial cells; settings: in culture, cited from earlier work
[3] = system: tumor cells grown in culture; settings: cited from earlier work
tumor angiogenesis = settings: mouse tumor xenograft models; cited from earlier work
c-kit+ CSCs = test: c-kit+ cardiac stem cell numbers in LV of 7-day-SAC WT mice; type: in vivo, mouse; settings: cromolyn 60 mg/kg/day started 7 days before SAC, n=5
From the text: Induction of pressure overload: At eight weeks of age, WT or Kit^w/Kit^w-v mice were subjected to suprarenal aortic constriction (SAC) to induce hypertension and, thus, pressure overload, or to sham operation, as previously described (M. Li et al. (2004)). One group (both SAC and sham-operated animals) was allowed to recover from surgery for 2 days and animals surviving this peri-operative period were then followed for survival over the next 28 days. A second group were sacrificed at 3, 7 or 14 days after SAC, and a third group was treated with the mast cell stabilizer, sodium chromoglycate (60 mg/kg/day, intraperitoneal, osmotic minipump) for one week before and then for the 7 days after surgery, at which time they were sacrificed. […] There are several different but overlapping types of CSCs, which are grouped according to cell surface markers, e.g., ckit+, Sca1+, MDR1+, isl1+, e-kit+ CSCs differentiated into cardiomyocytes contributing to repair of a damaged heart. […] In the W/W^v- and WT-SAC LV myocardium, c-kit^+ CSCs occurred individually, in pairs or in large clusters. c-kit^+ CSC clusters were not seen in the LVs of WT- or […] were rare in WT-SAC mice. Compared to sham controls, 7 days of SAC increased c-kit^+ CSCs 19-fold in the […]<0.001; FIG. 6A). Compared to the WT-SAC LV, the increase was 5.5-fold (P<0.01; FIG. 6A). […]

mast cells (MCs) = test: Mast cell density in LV of WT mice treated with cromolyn; type: in vivo, mouse; settings: cromolyn 60 mg/kg/day
From the text: Induction of pressure overload: At eight weeks of age, WT or Kit^w/Kit^w-v mice were subjected to suprarenal aortic constriction (SAC) to induce hypertension and, thus, pressure overload, or to sham operation, as previously described (M. Li et al. (2004)). One group (both SAC and sham-operated animals) was allowed to recover from surgery for 2 days and animals surviving this peri-operative period were then followed for survival over the next 28 days. A second group were sacrificed at 3, 7 or 14 days after SAC, and a third group was treated with the mast cell stabilizer, sodium chromoglycate (60 mg/kg/day, intraperitoneal, osmotic minipump) for one week before and then for the 7 days after surgery, at which time they were sacrificed.

## Cc1cc(C)c(/C=C2\C(=O)Nc3ccccc32)[nH]1 [SU5416]
[1]
  growth of tumor cells grown as subcutaneous xenografts: inhibit the growth
[2]; VEGF-induced
  VEGF-induced proliferation of human umbilical vein endothelial cells: inhibits
[3]
  growth of tumor cells grown in culture: neither compound potently inhibits
Tumor angiogenesis
  tumor angiogenesis in vivo: inhibit tumor angiogenesis in vivo

## O=C(O)c1cc(=O)c2c(OCC(O)COc3cccc4oc(C(=O)O)cc(=O)c34)cccc2o1 [cromolyn, sodium chromoglycate]
c-kit+ CSCs
  c-kit+ CSCs: 38±3 CSCs/mm^2
Mast cells (MCs)
  reduction of MC density: approximately 80%
Mast cells (MCs); n=4
  MC density: 0.45±0.2 MCs/mm^2

## Cc1[nH]c(/C=C2\C(=O)Nc3ccccc32)c(C)c1CCC(=O)O [SU6668]
[1]
  growth of tumor cells grown as subcutaneous xenografts: inhibit the growth
[1]; mice
  regression of established xenograft tumors: causes regression
[2]; VEGF- and FGF-induced
  VEGF- and FGF-induced proliferation of human umbilical vein endothelial cells: inhibits
[3]
  growth of tumor cells grown in culture: neither compound potently inhibits
Tumor angiogenesis
  tumor angiogenesis in vivo: inhibit tumor angiogenesis in vivo
